Experimental findings from patent US20120232062A1, “AZAINDAZOLES TO TREAT FLAVIVIRIDAE VIRUS INFECTION” (EIGER BIOPHARMACEUTICALS, INC., priority 2009, published 2012) are described below.

The assay has as its system HCV genotype 1b. Briefly: HCV 1b replicon luciferase assay. The class given is cell-based. The text has this:
A suitable 1b HCV RNA replicon assay uses the Huh7 cell line which contains an HCV 1b RNA replicon with a stable luciferase (LUC) reporter. This construct contains modifications that make the cell line more robust and provides stable LUC expression for antiviral screening. The LUC reporter is used as an indirect measure of HCV replication. The activity of the LUC reporter is directly proportional to HCV RNA levels and positive control antiviral compounds behave comparably using LUC endpoints. […]
Fresh growth medium is prepared just before use. The container used in the procedure is a 10 cm diameter culture dish. HCV replicon reporter cell lines are used. Prepare complete medium: add FBS and appropriate additives as described in “Culture Media”, below. Pre-warm the medium in a 37° C. thermostat water bath. Remove the dish from a 37° C. CO2 incubator. Check the cell name and complete medium and passage number marked on the dish. Aspirate the medium carefully and add 1 ml PBS to rinse the cells. Remove and discard the solution and add 1 ml of 0.25% Trypsin/0.02% EDTA. Rinse the cells with the added Trypsin/EDTA to ensure all the cells have been rinsed. Remove the Trypsin/EDTA with a vacuum pump and incubate at 37° C. for 3-5 minutes. Examine the cell morphology under an inverted microscope to confirm that a single cell suspension is clearly visible. Add 3 ml of complete medium to the dish and suspend the cell by gentle pipetting. Count the cell numbers with a hematometer. Adjust cell density to 100 k/ml by adding appropriate volume of the complete medium. Add 100 μl of cell suspension to each well of a 96-well white plate; the cell density is thus 10 k per well. Mark the plate with cell name, passage number, seeding density, date and the name of the operator. Place the 96-well assay plate in 37° C. 5% CO2 incubator for 24 hours.
Compounds are prepared or provided at 25 mM in 100% DMSO. This is the compound stock solution. The dilution procedure should be performed in a cell culture hood. Dispense the stock solution into the second column of a 96-well plate. Prepare 9-step (10 concentrations total), 5-fold serial dilutions by transferring 10 μA of the compound into the next well containing 40 μA of DMSO. Repeat for all compounds. Aspirate 2 μl of the above compound solution from each well and add into 198 μl complete media using a 12-channel pipetter to obtain the 10-fold concentration compound solution with 1% DMSO, mix well.
Remove the 96-well assay plate from the 37° C./5% CO2 incubator, examine the cell morphology under an inverted microscope. In a cell culture hood, add 10 μl of the 10× concentration compounds solution into each well on the 96-well assay plate. All compound's dose responses are done in duplicate. The starting final concentration of the compounds is 25 μM, and DMSO final concentration 0.1%. Mark the plate with compound code(s) and concentrations. Place the 96-well assay plate into CO2 incubator for 48 hours. Add 30 μl of Stead-Glo Luciferase System (Promega) reagent to each well and mix by gentle shaking on a plate shaker for 5 minutes to allow throughout cell lysis. Measure the luminescence with Envision (Perkin Elmer) with an integration time of 2 seconds. Record and analyze the data.
The cell culture media is DMEM complete: DMEM (Life Technologies #41965-039) supplemented with 10% FCS, 2 mM Glutamin (Life Technologies #25030-024), Penicillin (100 IU/ml)/Streptomycin (100 μg/ml) (Life Technologies #15140-114) and 1× nonessential amino acids (Life Technologies #11140-035). G418 (“Geneticin”, Life Technologies): concentrations are given as weight per volume of the original substance. Specific activity of a typical batch is ca. 700 μg/mg as stated by the manufacturer. […] Therefore each new batch of G418 should be tested individually e.g. in an electroporation experiment using different selection conditions (0.2-1 mg/ml).

[1] abbreviates: Hepatitis C virus, Huh-7, 48 h, Table 1, Huh7 HCV 1b replicon, luciferase reporter, 48 hours, read-out: 1b EC50.

Where two headings read alike, the source gives them in different places.

Take `O=C(NC1CCNCC1)c1nn(Cc2ccc(Cl)cc2)c2nc(N3CCCCCC3)ccc12` [compound 704]: under setting [1], the EC50 came out at 2.5 µM.
Regarding `Cn1nc(NC(=O)C2CCCCC2)c2ccc(N3CCCCCC3)nc21` [compound 835], the EC50 under setting [1] turned out to be 2.4 µM.
With `Cn1nc(C(=O)NC2CCNCC2)c2ccc(OC3CCCCC3)nc21` [compound 913], the EC50 (Table 1, Huh7 HCV 1b replicon, luciferase reporter, 48 hours, read-out: 1b EC50) came to 4.7 µM.
For `Cn1nc(-c2cnc(C(=O)NC3CCNCC3)s2)c2ccc(N3CCCCCC3)nc21` [compound 1127], the EC50 under setting [1] was 2.9 µM.
Consider `Cn1nc(C(=O)NC2CCN(CC(F)F)CC2)c2ccc(N3CCCCCCC3)nc21` [compound 1223], for which the EC50 under setting [1] worked out at 2.8 µM.
`Cn1nc(C(=O)Nc2cc[nH]n2)c2ccc(N3CCCCCC3)nc21` [compound 827]: the EC50 under setting [1] was 3.2 µM.
With `CC1CC(NCc2nn(C)c3nc(N4CCCCCC4)ccc23)CCN1` (centres unmarked) [compound 909], under setting [1], the EC50 is 4 µM.
Take `Cn1nc(-c2cnc(C(=O)NC3CCCN(CC(F)F)C3)s2)c2ccc(N3CCCCCCC3)nc21` (centres unmarked) [compound 1322]: under setting [1], the EC50 was 1.1 µM.
For `O=C(NC1CCCNC1)c1n[nH]c2nc(OC3CCCCC3)ccc12` (centres unmarked) [compound 728], the EC50 under setting [1] came to 8 µM.
As to `O=C(Nc1n[nH]c2nc(N3CCCCCC3)ccc12)C1CCCNC1` (centres unmarked) [compound 681], under setting [1], the EC50 came to 8.5 µM.
Turning to `Cn1nc(C(=O)N[C@H]2C[C@H]3CC[C@@H](C2)N3)c2ccc(N3CCCCCC3)nc21` [compound 984], the EC50 under setting [1] amounted to 2.2 µM.
Consider `O=C(NC1CCNCC1)c1nn2c3nc(ccc13)OC/C=C\CCCCC2` [compound 876], for which, under setting [1], the EC50 came out at 7.5 µM.
Consider `Cn1nc(-c2nnc(C3CCCN(CC(F)F)C3)o2)c2ccc(N3CCCCCCC3)nc21` (centres unmarked) [compound 1273], for which the EC50 under setting [1] was determined as 4.8 µM.
On to `Cn1nc(NC(=O)c2ccncc2)c2ccc(N3CCCC3)nc21` [compound 788], for which the EC50 under setting [1] came out at 9.5 µM.
Same read-out and setting: as for `Cn1nc(C(=O)NC2CCNCC2)c2ccc(OCc3ccccc3-c3ccc(Cl)cc3)nc21` [compound 1102], the figure is 0.62 µM; as for `Cn1nc(C(=O)NC2CCNCC2)c2ccc(OC3CCCCCC3)nc21` [compound 873], 4.7 µM.
As to `Cn1nc(C(=O)NC2CCN(S(C)(=O)=O)CC2)c2ccc(N3CCCCCC3)nc21` [compound 699], the concentration giving a half-maximal response (EC50) under setting [1] amounted to 3.8 µM.
As for `CC(C)c1ccc(CN2CCC(NC(=O)c3nn(C)c4nc(N5CCCCCC5)ccc34)CC2)cc1` [compound 1046], under setting [1], the EC50 was 1.4 µM.
On to `Cn1nc(C(=O)NC2CCNCC2)c2ccc(OCc3ccc(-c4ccccc4)cc3)nc21` [compound 974], for which, under setting [1], the EC50 came out at 4.5 µM.
`COCC1CCCN1CCCc1nn(C)c2nc(N3CCCCCCC3)ccc12` (centres unmarked) [compound 1453]: under setting [1], the EC50 was 2.8 µM.
As for `CCCN1CCC(NC(=O)c2nn(C)c3nc(N4CCCCCCC4)ccc23)CC1` [compound 1235], the EC50 under setting [1] was 3.4 µM.
With `CN1C2CCC1CC(NCc1nn(C)c3nc(N4CCCCCC4)ccc13)C2` (centres unmarked) [compound 910], the EC50 under setting [1] came to 3.9 µM.
On to `CCn1nc(C(=O)NC2CCNCC2)c2ccc(N3CCCCCC3)nc21` [compound 856], for which the EC50 under setting [1] was 3.7 µM.
`COC[C@@H]1CCCN1c1ccc2c(C(=O)NC3CCNCC3)n[nH]c2n1` [compound 778]: under setting [1], the half-maximal effective concentration (EC50) is 17 µM.
As for `COCC1CCN(CCN2CCC(NC(=O)c3nn(C)c4nc(N5CCCCCC5)ccc34)CC2)C1` (centres unmarked) [compound 1557], the concentration giving a half-maximal response (EC50) under setting [1] amounted to 2.1 µM.
Still for that read-out and setting: as for `Cn1nc(-c2nnc(C3CCCN(CC4CCCCC4)C3)o2)c2ccc(N3CCCCCCC3)nc21` (centres unmarked) [compound 1272], the figure is 0.94 µM.
Regarding `Cn1nc(CCCN2CCCC2)c2ccc(N3CCCCCCC3)nc21` [EBP1171], the EC50 (Hepatitis C virus, 48 h, read-out: EC50 in the 48 hour 1b replicon assay, 48 hour) was under 3 µM.
As to `Cn1nc(C(=O)NC2CCN(Cc3ccc(-c4ccccc4)cc3)CC2)c2ccc(O)nc21` [compound 972], the EC50 under setting [1] was determined as 3.7 µM.
The same measure, in the same setting: in the case of `Cn1nc(C(=O)NC2CCN(CCN3CC[C@@H](O)C3)CC2)c2ccc(N3CCCCCC3)nc21` [compound 1558] it was 3.4 µM; in that of `Cn1nc(C(=O)NC2CCCN(S(C)(=O)=O)C2)c2ccc(N3CCCCCC3)nc21` (centres unmarked) [compound 700], 3.8 µM; in that of `CCC(CC)Oc1ccc2c(NC(=O)CC3CCCNC3)nn(C)c2n1` (centres unmarked) [compound 952], 10 µM.
As for `C[C@@H]1CCCN1CCN1CCC(NC(=O)c2nn(C)c3nc(N4CCCCCC4)ccc23)CC1` [compound 1424], the EC50 under setting [1] came to 0.79 µM.
The same measure, in the same setting: as for `Cn1nc(CCCN2CC=CC2)c2ccc(N3CCCCCCC3)nc21` [compound 1461], the figure is 2.6 µM; as for `CCC(CC)Oc1ccc2c(C(=O)NC3CCCNC3)nn(C)c2n1` (centres unmarked) [compound 815], 6.6 µM; as for `O=C(NC1CCNCC1)c1nn(CC2CCCCC2)c2nc(N3CCCCCC3)ccc12` [compound 845], 2 µM.
Still for that read-out and setting: as for `Cn1nc(CCCN2CCCC(CO)C2)c2ccc(N3CCCCCCC3)nc21` (centres unmarked) [compound 1460], the figure is 2.7 µM.
On to `CCN1CCC(NC(=O)c2nn(C)c3nc(N4CCCCCCC4)ccc23)CC1C` (centres unmarked) [compound 1234], for which the EC50 under setting [1] amounted to 1.9 µM.
Consider `Cn1nc(-c2coc(CC3CCNCC3)n2)c2ccc(N3CCCCCC3)nc21` [compound 1096], for which the EC50 under setting [1] was 2.8 µM.
Same read-out and setting: as for `CC1CC(NC(=O)c2n[nH]c3nc(N4CCCCCC4)ccc23)CCN1` (centres unmarked) [compound 734], the figure is 2.6 µM.
For `COC[C@@H]1CCCN1CCCc1nn(C)c2nc(N3CCCCCCC3)ccc12` [compound 1465], the EC50 under setting [1] stood at 4.7 µM.
Consider `Cn1nc(C(=O)NC2CCN(Cc3cccc(Cl)c3)CC2)c2ccc(N3CCCCCC3)nc21` [compound 1038], for which the EC50 under setting [1] worked out at 3.4 µM.
On the same count and under the same terms, in the case of `Cn1nc(C(=O)NC2CCNCC2)c2ccc(N3CCCCC3)nc21` [compound 861] it was 7.3 µM; in that of `O=C(NCC1CCCNC1)c1nn(Cc2ccc(Cl)cc2)c2nc(N3CCCCCC3)ccc12` (centres unmarked) [compound 850], 2.5 µM.
For the molecule `Cn1nc(C(=O)NC2CCN(CCN3CCCC3)CC2)c2ccc(N3CCCCCCC3)nc21` [compound 1296], under setting [1], the EC50 amounted to 0.5 µM.
For `Cn1nc(CCCN2CC[C@H](O)C2)c2ccc(N3CCCCCCC3)nc21` [compound 1458], the EC50 under setting [1] came out at 3.2 µM.
As to `Cn1nc(-c2nnc(C3CCN(CCN4CCCCC4)C3)o2)c2ccc(N3CCCCCCC3)nc21` (centres unmarked) [compound 1368], the EC50 under setting [1] worked out at 4.8 µM.
As for `CCCN1CCC(NC(=O)c2nn(C)c3nc(N4CCCCCC4)ccc23)CC1` [compound 1596], under setting [1], the concentration giving a half-maximal response (EC50) stood at 1.4 µM.
As to `COCC1CCCCN1CCN1CCC(NC(=O)c2nn(C)c3nc(N4CCCCCC4)ccc23)CC1` (centres unmarked) [compound 1426], the EC50 under setting [1] was 0.45 µM.
Still for that read-out and setting: in the case of `CC1CCCCN1CCCc1nn(C)c2nc(N3CCCCCCC3)ccc12` (centres unmarked) [compound 1454] it was 1.6 µM.
As to `Cn1nc(C(=O)NC2CCN(Cc3cccc(-c4ccccc4)c3)CC2)c2ccc(OCc3cccc(-c4ccccc4)c3)nc21` [compound 970], the EC50 under setting [1] amounted to 8.9 µM.
For the molecule `CCC(CC)Oc1ccc2c(C(=O)NC3CCCNC3)n[nH]c2n1` (centres unmarked) [compound 725], under setting [1], the EC50 was determined as 7.6 µM.
On to `Cn1nc(C(=O)N2CCNCC2)c2ccc(N3CCCCCC3)nc21` [compound 823], for which the EC50 under setting [1] stood at 7.6 µM.
For `CCN1CCC(NC(=O)c2nn(C)c3nc(NC4CCCCCCC4)ccc23)CC1` [compound 1474], under setting [1], the concentration for a half-maximal effect (EC50) was 0.48 µM.
As for `Cn1nc(C(=O)NC2CCN(CC3CCCCC3)CC2)c2ccc(NC3CCCCCC3)nc21` [compound 1073], the EC50 under setting [1] came out at 0.67 µM.
With `Cc1ccc(CN2CCC(NC(=O)c3nn(C)c4nc(N5CCCCCCC5)ccc34)CC2)cc1` [compound 1224], under setting [1], the EC50 was determined as 2.7 µM.
Regarding `Cn1nc(-c2cnc(C(=O)NC3CCCN(CCN4CCCCC4)C3)s2)c2ccc(N3CCCCCCC3)nc21` (centres unmarked) [compound 1316], under setting [1], the EC50 is 0.55 µM.
